{"source": "patent US20250338849A1", "about": "(priority 2022, published 2025)", "type_in_all_cases": "cell-based", "key": {"Botrytis cinerea": {"system": "Botrytis cinerea", "experiment": "Activity against the grey mold Botrytis cinerea in the microtiterplate test", "conditions": "single active"}, "Septoria tritici": {"system": "Septoria tritici", "experiment": "Activity against leaf blotch on wheat caused by Septoria tritici (microtiter plate)", "conditions": "single active"}, "Pyricularia oryzae": {"system": "Pyricularia oryzae", "experiment": "microbe, parasite or virus in culture", "conditions": "for inhibition of growth at 0.016 ppm / inhibition of growth at 0.063 ppm / inhibition of growth at 0.25 ppm / inhibition of growth at 1 ppm / inhibition of growth at 4 ppm: Pyricularia oryzae, 168 h, read-out: Observed efficacy; for Observed efficacy: single active"}, "[1]": {"conditions": "Botrytis cinerea, 168 h, 0.063 ppm, read-out: Observed efficacy"}, "[2]": {"conditions": "Zymoseptoria tritici, 168 h, 0.063 ppm, read-out: Observed efficacy"}, "[3]": {"conditions": "Zymoseptoria tritici, 168 h, 0.016 ppm, read-out: Observed efficacy"}, "[4]": {"conditions": "Botrytis cinerea, 168 h, read-out: Observed efficacy"}, "[5]": {"conditions": "Zymoseptoria tritici, 168 h, 0.25 ppm, read-out: Observed efficacy"}, "[6]": {"conditions": "Zymoseptoria tritici, 168 h, read-out: Observed efficacy"}}, "data": [{"smiles": "CNC(=O)/C(=N/OC)c1ccccc1COc1cc(C)ccc1C", "note": "[Dimoxystrobin, dimoxystrobin]", "values": [{"measurement": "Observed efficacy", "setting": "Botrytis cinerea; 0.25 ppm", "result": 2, "unit": "%"}]}, {"smiles": "CC(C)CC(C)c1sccc1NC(=O)c1cn(C)nc1C(F)(F)F", "note": "(stereo not drawn) [Penthiopyrad, penthiopyrad]", "values": [{"measurement": "inhibition of growth at 0.063 ppm", "setting": "Botrytis cinerea; [1]", "result": 10, "unit": "%"}, {"measurement": "inhibition of growth at 0.063 ppm", "setting": "Septoria tritici; [2]", "result": 33, "unit": "%"}]}, {"smiles": "N#Cc1c[nH]cc1-c1cccc2c1OC(F)(F)O2", "note": "[Fludioxonil, fludioxonil]", "values": [{"measurement": "inhibition of growth at 0.016 ppm", "setting": "Pyricularia oryzae", "result": 14, "unit": "%"}, {"measurement": "inhibition of growth at 0.063 ppm", "setting": "Pyricularia oryzae", "result": 45, "unit": "%"}, {"measurement": "inhibition of growth at 0.25 ppm", "setting": "Pyricularia oryzae", "result": 69, "unit": "%"}, {"measurement": "inhibition of growth at 0.016 ppm", "setting": "Septoria tritici; [3]", "result": 1, "unit": "%"}]}, {"smiles": "COc1ccc2c(c1F)OC(C)(C)N=C2c1cnc(C(F)F)c(C)c1", "note": "[Compound 1-3]", "values": [{"measurement": "inhibition of growth at 1 ppm", "setting": "Botrytis cinerea; [4]", "result": 12, "unit": "%"}, {"measurement": "inhibition of growth at 0.063 ppm", "setting": "Pyricularia oryzae", "result": 0, "unit": "%"}, {"measurement": "inhibition of growth at 1 ppm", "setting": "Pyricularia oryzae", "result": 12, "unit": "%"}, {"measurement": "inhibition of growth at 0.063 ppm", "setting": "Septoria tritici; [2]", "result": 21, "unit": "%"}, {"measurement": "inhibition of growth at 0.25 ppm", "setting": "Septoria tritici; [5]", "result": 20, "unit": "%"}, {"measurement": "inhibition of growth at 1 ppm", "setting": "Septoria tritici; [6]", "result": 18, "unit": "%"}]}, {"smiles": "Cc1cccc(-n2nnn(C)c2=O)c1COc1ccn(-c2ccc(Cl)cc2)n1", "note": "[Methyltetraprol, metyltetraprole]", "values": [{"measurement": "Observed efficacy", "setting": "Pyricularia oryzae; 0.016 ppm", "result": 38, "unit": "%"}, {"measurement": "Observed efficacy", "setting": "Septoria tritici; 0.016 ppm", "result": 51, "unit": "%"}]}, {"smiles": "O=C(Nc1ccccc1-c1ccc(Cl)cc1)c1cccnc1Cl", "note": "[Boscalid, boscalid]", "values": [{"measurement": "inhibition of growth at 1 ppm", "setting": "Botrytis cinerea; [4]", "result": 76, "unit": "%"}, {"measurement": "inhibition of growth at 4 ppm", "setting": "Pyricularia oryzae", "result": 12, "unit": "%"}, {"measurement": "inhibition of growth at 0.25 ppm", "setting": "Septoria tritici; [5]", "result": 21, "unit": "%"}, {"measurement": "inhibition of growth at 1 ppm", "setting": "Septoria tritici; [6]", "result": 62, "unit": "%"}]}, {"smiles": "Cc1cc(C2=NC(C)(C)Oc3c(F)cccc32)cnc1C(F)F", "note": "[Compound 1-2]", "values": [{"measurement": "inhibition of growth at 1 ppm", "setting": "Botrytis cinerea; [4]", "result": 19, "unit": "%"}, {"measurement": "inhibition of growth at 0.063 ppm", "setting": "Pyricularia oryzae", "result": 4, "unit": "%"}, {"measurement": "inhibition of growth at 0.25 ppm", "setting": "Pyricularia oryzae", "result": 15, "unit": "%"}, {"measurement": "inhibition of growth at 1 ppm", "setting": "Pyricularia oryzae", "result": 31, "unit": "%"}, {"measurement": "inhibition of growth at 0.25 ppm", "setting": "Septoria tritici; [5]", "result": 0, "unit": "%"}, {"measurement": "inhibition of growth at 1 ppm", "setting": "Septoria tritici; [6]", "result": 0, "unit": "%"}]}, {"smiles": "CC(C)(C)C(O)(CCc1ccc(Cl)cc1)Cn1cncn1", "note": "(stereo not drawn) [Tebuconazol, tebuconazole]", "values": [{"measurement": "inhibition of growth at 0.25 ppm", "setting": "Botrytis cinerea; Botrytis cinerea, 168 h, 0.25 ppm, read-out: Observed efficacy", "result": 38, "unit": "%"}, {"measurement": "inhibition of growth at 0.25 ppm", "setting": "Pyricularia oryzae", "result": 10, "unit": "%"}, {"measurement": "inhibition of growth at 0.25 ppm", "setting": "Septoria tritici; [5]", "result": 50, "unit": "%"}]}, {"smiles": "Cc1cc(C2=NC(C)(C)Oc3c2ccc(F)c3F)cnc1C(F)F", "note": "[Compound 1-1]", "values": [{"measurement": "inhibition of growth at 1 ppm", "setting": "Botrytis cinerea; [4]", "result": 33, "unit": "%"}, {"measurement": "inhibition of growth at 0.016 ppm", "setting": "Pyricularia oryzae", "result": 8, "unit": "%"}, {"measurement": "inhibition of growth at 0.063 ppm", "setting": "Pyricularia oryzae", "result": 10, "unit": "%"}, {"measurement": "inhibition of growth at 0.25 ppm", "setting": "Pyricularia oryzae", "result": 21, "unit": "%"}, {"measurement": "inhibition of growth at 1 ppm", "setting": "Pyricularia oryzae", "result": 65, "unit": "%"}, {"measurement": "inhibition of growth at 0.004 ppm", "setting": "Septoria tritici; Zymoseptoria tritici, 168 h, 0.004 ppm, read-out: Observed efficacy", "result": 4, "unit": "%"}, {"measurement": "inhibition of growth at 0.016 ppm", "setting": "Septoria tritici; [3]", "result": 3, "unit": "%"}, {"measurement": "inhibition of growth at 0.063 ppm", "setting": "Septoria tritici; [2]", "result": 10, "unit": "%"}, {"measurement": "inhibition of growth at 0.25 ppm", "setting": "Septoria tritici; [5]", "result": 22, "unit": "%"}]}, {"smiles": "CC(C)NC(=O)N1CC(=O)N(c2cc(Cl)cc(Cl)c2)C1=O", "note": "[Iprodion, iprodione]", "values": [{"measurement": "inhibition of growth at 1 ppm", "setting": "Botrytis cinerea; [4]", "result": 52, "unit": "%"}, {"measurement": "inhibition of growth at 4 ppm", "setting": "Pyricularia oryzae", "result": 42, "unit": "%"}, {"measurement": "inhibition of growth at 1 ppm", "setting": "Septoria tritici; [6]", "result": 9, "unit": "%"}]}, {"smiles": "CON(C(=O)c1cn(C)nc1C(F)F)C(C)Cc1c(Cl)cc(Cl)cc1Cl", "note": "(stereo not drawn) [Pydiflumetofen, pydiflumetofen]", "values": [{"measurement": "Observed efficacy", "setting": "Botrytis cinerea; 0.063 ppm", "result": 15, "unit": "%"}, {"measurement": "Observed efficacy", "setting": "Septoria tritici; 0.016 ppm", "result": 67, "unit": "%"}]}, {"smiles": "O=C(NCCc1ncc(C(F)(F)F)cc1Cl)c1ccccc1C(F)(F)F", "note": "[Fluopyram, fluopyram]", "values": [{"measurement": "inhibition of growth at 0.25 ppm", "setting": "Septoria tritici; [5]", "result": 33, "unit": "%"}]}, {"smiles": "O=C(NC1CCC1c1ccc(Cl)cc1Cl)c1cccnc1C(F)(F)F", "note": "(stereo in doubt) [Cyclobutrifuram, cyclobutrifluram]", "values": [{"measurement": "Observed efficacy", "setting": "Pyricularia oryzae; 1 ppm", "result": 14, "unit": "%"}, {"measurement": "Observed efficacy", "setting": "Septoria tritici; 0.25 ppm", "result": 34, "unit": "%"}]}, {"smiles": "CO/C=C(/C(=O)OC)c1ccccc1Oc1cc(Oc2ccccc2C#N)ncn1", "note": "[Azoxystrobin, azoxystrobin]", "values": [{"measurement": "Observed efficacy", "setting": "Pyricularia oryzae; 0.016 ppm", "result": 59, "unit": "%"}, {"measurement": "Observed efficacy", "setting": "Septoria tritici; 0.016 ppm", "result": 3, "unit": "%"}, {"measurement": "Observed efficacy", "setting": "Septoria tritici; 0.063 ppm", "result": 43, "unit": "%"}]}, {"smiles": "Cc1cc(OC(C)C)ccc1C(=O)C(C)(C)NC(=O)c1sccc1C", "note": "[Isofetamid, isofetamid]", "values": [{"measurement": "Observed efficacy", "setting": "Pyricularia oryzae; 4 ppm", "result": 15, "unit": "%"}, {"measurement": "Observed efficacy", "setting": "Septoria tritici; 0.25 ppm", "result": 45, "unit": "%"}]}, {"smiles": "OC(Cc1ccccc1Cl)(Cn1nc[nH]c1=S)C1(Cl)CC1", "note": "(stereo not drawn) [Prothioconazol, prothioconazole]", "values": [{"measurement": "inhibition of growth at 1 ppm", "setting": "Botrytis cinerea; [4]", "result": 22, "unit": "%"}, {"measurement": "inhibition of growth at 4 ppm", "setting": "Botrytis cinerea; Botrytis cinerea, 168 h, 4 ppm, read-out: Observed efficacy", "result": 58, "unit": "%"}, {"measurement": "inhibition of growth at 1 ppm", "setting": "Pyricularia oryzae", "result": 15, "unit": "%"}, {"measurement": "inhibition of growth at 0.25 ppm", "setting": "Septoria tritici; [5]", "result": 66, "unit": "%"}]}, {"smiles": "COc1ccnc(C(=O)N[C@@H](C)C(=O)O[C@@H](C)C(c2ccc(F)cc2)c2ccc(F)cc2)c1OC(C)=O", "note": "[Florylpicoxamid, florylpicoxamid]", "values": [{"measurement": "Observed efficacy", "setting": "Pyricularia oryzae; 0.004 ppm", "result": 28, "unit": "%"}, {"measurement": "Observed efficacy", "setting": "Pyricularia oryzae; 0.016 ppm", "result": 70, "unit": "%"}, {"measurement": "Observed efficacy", "setting": "Septoria tritici; 0.016 ppm", "result": 47, "unit": "%"}]}, {"smiles": "CC1COC(Cn2cncn2)(c2ccc(Oc3ccc(Cl)cc3)cc2Cl)O1", "note": "(stereo not drawn) [Difenoconazol, difenoconazole]", "values": [{"measurement": "inhibition of growth at 0.063 ppm", "setting": "Botrytis cinerea; [1]", "result": 8, "unit": "%"}]}, {"smiles": "Cn1cc(C(=O)Nc2ccccc2-c2cc(F)c(F)c(F)c2)c(C(F)F)n1", "note": "[Fluxapyroxad, fluxapyroxad]", "values": [{"measurement": "Observed efficacy", "setting": "Botrytis cinerea; 0.063 ppm", "result": 29, "unit": "%"}, {"measurement": "Observed efficacy", "setting": "Septoria tritici; 0.063 ppm", "result": 27, "unit": "%"}]}, {"smiles": "Cc1ccc(NC(=O)c2snnc2C)cc1Cl", "note": "[Tiadinil, tiadinil]", "values": [{"measurement": "inhibition of growth at 4 ppm", "setting": "Septoria tritici; Zymoseptoria tritici, 168 h, 4 ppm, read-out: Observed efficacy", "result": 10, "unit": "%"}]}, {"smiles": "O=[N+]([O-])c1cc(C(F)(F)F)c(Cl)c([N+](=O)[O-])c1Nc1ncc(C(F)(F)F)cc1Cl", "note": "[Fluazinam, fluazinam]", "values": [{"measurement": "inhibition of growth at 0.063 ppm", "setting": "Pyricularia oryzae", "result": 19, "unit": "%"}, {"measurement": "inhibition of growth at 0.063 ppm", "setting": "Septoria tritici; [2]", "result": 5, "unit": "%"}]}]}
